# Data taken from US20250115581A1, “SUBSTITUTED PIPERIDINES AS CK1A DEGRADERS” (Monte Rosa Therapeutics, Inc., priority 2022, published 2025).
# What was measured:
# CRBN/DDB1 = CRBN/DDB1 (Homo sapiens, UniProt Q96SW2); assay: HTRF binding assay (displacement of Cy5-thalidomide probe from CRBN/DDB1); conditions: CRBN/DDB1 2.5 nM, Cy5-Thalidomide 100 nM, 30 min; geometric mean; read-out: HTRF_Thali_Disp_DR_geo_IC50
# Text: Binding of test compounds to CRBN/DDB1 was monitored in an HTRF assay using 1-[5-({2-[2-(2-{[2-(2,6-dioxopiperidin-3-yl)-1,3-dioxo-2,3-dihydro-1H-isoindol-4-yl]oxy}acetamido)ethoxy]ethyl}carbamoyl)pentyl]-3,3-dimethyl-2-[(1E,3E)-5-[(2E)-1,3,3-trimethyl-5-sulfo-2,3-dihydro-1H-indol-2-ylidene]penta-1,3-dien-1-yl]-3H-indol-1-ium-5-sulfonate as a fluorescent probe. In this assay, compounds displace the fluorescently labeled thalidomide-based probe bound to CRBN and fluorescence is monitored with increasing compound concentration. Assays were conducted in Greiner white 384 well HiBase plates (Cat. No 784075-25) in 10 μL total volume. A one pot detection solution of CRBN/DDB1 (2.5 nM), anti-His Terbium Cryptate Gold (1×, PerkinElmer Cat. #: 61HI2TLB), and Cy5-Thalidomide (100 nM, Tenova Cat.: T52461) was prepared in 20 mM HEPES, 20 mM NaCl, 0.2 mM TCEP, 0.2 mM EDTA, and 0.005% Tween20 was dispensed to each assay plate. Test compounds were stored in dry, ambient temperatures at 10 mM. A 10-point, 1:3 dilution series was prepared from 10 mM stock concentrations in Echo-compatible LDV plates. 10 nL of each compound dilution series was dispensed into assays wells using an Echo 650 (Labcyte inc. USA). 10 nL of 10 mM lenalidomide (Selleckchem Cat no. S1029) was transferred into the active-control wells for the assay and 10 nL of DMSO was transferred into the negative control wells. The assay was then allowed to incubate for 30 min at ambient temperature after transferring the test compounds. Plate measurements were taken on a Pherastar FSX (BMG Labtech, Germany) using the HTRF Red filter (Ex. 337 nm, em1: 620 nm, em2: 665 nm) (Flashes: 50, Integration time: 60-400 μs, Z-height: 10 mm, Ratio-multiplier: 10,000). Analysis, HTRF ratio and IC50 values were derived using KNIME analytics (KNIME Zurich) transformation and fitting within Collaborative Drug Discovery (Collaborative Drug Discovery USA) using a 4-parameter logistic fit. HTRF ratio calculation was performed using the following formula: […]
# where em665 nm represents the measured emission at 665 nm upon excitation at 337 nm and em620 nm the measured emission at 620 nm upon excitation at 337 nm. The 4 parameter logistic fitting model was performed using the following formula: […]
# where Y represents the HTRF ratio response (as defined previously), X the compound concentration in μM, Ymin the minimum response plateau, Ymax the maximum response plateau, IC50 the concentration of […] that gives a response half way between Ymin and Ymax and HillSlope the steepness of the family of curves. No fitting model constraints was applied on Ymin, or Ymax whilst IC50>0 and −0.5>HillSlope>−3 Cheng-Prusoff transformation
# Ki values were derived from the geometric mean of the IC50 values using the Cheng-Prusoff transformation:
# where [L] represents the concentration of fluorescent probe in […], Kd the affinity (binding constant) of the fluorescent probe in units of μM and IC50 the concentration of agonist that gives a response halfway between Ymin and Ymax (as described in 1.2.1)
# Analysis and IC50 values were derived using KNIME analytics (KNIME, Zurich) transformation and fitting within Collaborative Drug Discovery (Collaborative Drug Discovery, USA) as described in 1.2.1. Ki values were derived from the geometric mean of the IC50 values using the Cheng-Prusoff transformation as described in 2.2.2. Data was visualized in GraphPad Prism 8.1.2 (GraphPad, USA) and reported as mean and standard deviation. Microsoft Office Excel 2012 (Redmond, WA) was used for calculation of mean and standard deviation.
# IC50 data are reported in Table 3 for compounds in Table 1. In Table 3 below, According to the code, A represents a IC50 value of ≤0.1 μM, B represents a IC50 value >0.1 μM and ≤1 μM, C represents an IC50 value >1 μM.
# CK1α = target: T1, CK1α (Homo sapiens, UniProt P48729+Q96SW2); assay: CK1α NanoBit Assay (HiBiT-tagged CSNK1A1 in HEK293 cells, luminescence); assay type: cell-based; conditions: 24 h
# T1 construct: HEK293 clonal lines with CRISPR KI HiBiT tag on CSNK1A1; host or cells: HEK293 clonal line, CRISPR knock-in HiBiT at the CSNK1A1 locus, stably expressing LgBiT
# Description: HEK293 clonal lines with CRISPR KI HiBiT tag on CSNK1A1 and stably expressing LgBiT protein were obtained from Promega (Madison, WI). Cells were plated at 5000 cells per well using Multiflo (BioTek) in 384-well white solid bottom plates (Corning, 3570BC) in 25 μl volume in DMEM media (DMEM, high glucose, HEPES, no phenol red (ThermoFisher Scientific, 21063029)) containing 10% FBS (Corning, 35-075-CV), 1% Penicillin/Streptomycin ((ThermoFisher Scientific, 15140-122), and 0.2% Endurazine (Nano-Glo Endurazine Live Cell Substrate (Promega, N2571)). Cells were incubated for 16 hours at 37° C., 5% CO2. Depending on experiment 25 or 75 nL of a compound at 10 mM were added into the plate using an Echo® 650 liquid handler (Labcyte) to achieve final concentration of 10 or 30 μM in wells. Cells were incubated at 37° C., 5% CO2 for 24 hours and then signal was read on a Pherastar FSX using “LUM plus” optic module.
# Data analysis was performed in Scinamic (Scinamic, Cambridge, MA). Luminescence response (R) was calculated by the formula: response=100*(S−N)/(P−N) where S is the signal of the well, N and P the mean negative and positive control values respectively of the same plate. The luminescence response was then fitted in Scinamic using a 3-parameter agonist logistic fit (hillslope=1, EC50>0, top/bottom unconstrained).
# DC50 data are reported in Table 2 for compounds in Table 1. In Table 2 below, According to the code, A represents a DC50 value of ≤0.1 μM, B represents a DC50 value >0.1 μM and ≤1 μM, C represents an DC50 value >1 μM.
# T1 sequence (P48729 whole entry): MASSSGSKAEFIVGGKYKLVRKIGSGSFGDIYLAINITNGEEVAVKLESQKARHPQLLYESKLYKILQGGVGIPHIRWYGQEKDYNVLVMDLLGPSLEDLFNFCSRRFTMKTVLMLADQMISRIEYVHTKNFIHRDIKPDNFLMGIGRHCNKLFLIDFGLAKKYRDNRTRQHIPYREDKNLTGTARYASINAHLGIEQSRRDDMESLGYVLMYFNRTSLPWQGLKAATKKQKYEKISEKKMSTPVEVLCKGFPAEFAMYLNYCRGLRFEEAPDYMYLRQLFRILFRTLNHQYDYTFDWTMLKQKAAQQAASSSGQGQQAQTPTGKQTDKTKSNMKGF
# T1 sequence (Q96SW2 whole entry): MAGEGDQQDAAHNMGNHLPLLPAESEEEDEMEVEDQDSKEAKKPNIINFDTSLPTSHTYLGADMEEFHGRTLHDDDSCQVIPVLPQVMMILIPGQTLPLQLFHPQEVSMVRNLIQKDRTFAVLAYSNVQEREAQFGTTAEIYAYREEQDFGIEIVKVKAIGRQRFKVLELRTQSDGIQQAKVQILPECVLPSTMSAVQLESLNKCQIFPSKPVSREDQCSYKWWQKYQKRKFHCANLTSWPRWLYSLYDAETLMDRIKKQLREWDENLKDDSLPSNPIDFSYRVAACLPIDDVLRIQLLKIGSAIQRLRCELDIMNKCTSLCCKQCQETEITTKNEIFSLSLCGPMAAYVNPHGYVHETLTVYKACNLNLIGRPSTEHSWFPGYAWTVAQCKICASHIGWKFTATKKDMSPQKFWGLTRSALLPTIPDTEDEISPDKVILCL
# T1 sequence (Q16531 whole entry partner): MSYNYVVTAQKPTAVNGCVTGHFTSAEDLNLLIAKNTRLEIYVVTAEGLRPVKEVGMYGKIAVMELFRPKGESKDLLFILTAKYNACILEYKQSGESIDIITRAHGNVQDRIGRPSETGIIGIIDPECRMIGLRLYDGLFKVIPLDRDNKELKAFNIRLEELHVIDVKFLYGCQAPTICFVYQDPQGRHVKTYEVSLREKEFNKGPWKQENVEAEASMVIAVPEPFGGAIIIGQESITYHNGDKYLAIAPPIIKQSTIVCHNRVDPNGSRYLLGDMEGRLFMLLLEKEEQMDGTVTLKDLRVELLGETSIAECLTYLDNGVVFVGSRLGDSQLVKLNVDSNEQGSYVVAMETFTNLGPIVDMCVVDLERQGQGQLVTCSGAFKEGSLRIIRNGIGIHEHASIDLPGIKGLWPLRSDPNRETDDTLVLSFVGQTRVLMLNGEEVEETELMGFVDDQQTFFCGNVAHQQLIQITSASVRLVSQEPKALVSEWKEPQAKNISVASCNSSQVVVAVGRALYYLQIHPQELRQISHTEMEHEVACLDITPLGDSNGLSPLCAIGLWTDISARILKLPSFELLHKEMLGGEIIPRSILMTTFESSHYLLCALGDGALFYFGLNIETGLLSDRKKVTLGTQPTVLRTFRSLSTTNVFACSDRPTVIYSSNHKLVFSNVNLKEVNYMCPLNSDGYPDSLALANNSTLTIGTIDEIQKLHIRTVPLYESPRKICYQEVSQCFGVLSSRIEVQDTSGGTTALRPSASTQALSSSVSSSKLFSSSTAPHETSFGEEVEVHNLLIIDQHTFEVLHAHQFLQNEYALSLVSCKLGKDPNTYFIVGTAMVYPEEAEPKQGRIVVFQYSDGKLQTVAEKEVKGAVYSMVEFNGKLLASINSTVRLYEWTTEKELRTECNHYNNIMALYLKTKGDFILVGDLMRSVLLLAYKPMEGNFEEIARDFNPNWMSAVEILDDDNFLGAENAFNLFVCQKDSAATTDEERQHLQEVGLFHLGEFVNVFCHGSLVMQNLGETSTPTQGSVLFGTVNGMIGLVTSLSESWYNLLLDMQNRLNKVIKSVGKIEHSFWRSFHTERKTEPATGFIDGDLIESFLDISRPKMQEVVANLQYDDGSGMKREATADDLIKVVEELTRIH
# CRBN/DDB1, sequence (Q96SW2 whole entry): as the sequence (Q96SW2 whole entry) above
# CRBN/DDB1, sequence (Q16531 whole entry partner): as the sequence (Q16531 whole entry partner) above
Structure (SMILES),IC50 (CRBN/DDB1),DC50 (CK1α)
"O=C1CCC(N2Cc3cc(N4CCN(C5C6CCCC65)C4=O)ccc3C2=O)C(=O)N1 (centres unmarked) [Compound 160, 3-(5-(3-(bicyclo[3.1.0]hexan-6-yl)-2-oxoimidazolidin-1-yl)-1-oxoisoindolin-2-yl)piperidine-2,6-dione]",0.1 to 1 µM,0.1 to 1 µM
"COC1(c2ccc(N3CCN(c4ccc5c(c4)CN(C4CCC(=O)NC4=O)C5=O)C3=O)cc2)CC1 (centres unmarked) [Compound 133, 3-(5-(3-(4-(1-methoxycyclopropyl)phenyl)-2-oxoimidazolidin-1-yl)-1-oxoisoindolin-2-yl)piperidine-2,6-dione]",0.1 to 1 µM,≤ 0.1 µM
"O=C1CCC(N2Cc3cc(N4CCN(C5COC5)C4=O)ccc3C2=O)C(=O)N1 (centres unmarked) [Compound 178, 3-(5-(3-(oxetan-3-yl)-2-oxoimidazolidin-1-yl)-1-oxoisoindolin-2-yl)piperidine-2,6-dione]",0.1 to 1 µM,> 1 µM
"COCc1ccc(N2CCN(c3ccc4c(c3)CN(C3CCC(=O)NC3=O)C4=O)C2=O)cc1 (centres unmarked) [Compound 128, 3-(5-(3-(4-(methoxymethyl)phenyl)-2-oxoimidazolidin-1-yl)-1-oxoisoindolin-2-yl)piperidine-2,6-dione]",0.1 to 1 µM,≤ 0.1 µM
"O=C1CCC(N2Cc3cc(N4CCN(C(c5ccccc5)C(F)(F)F)C4=O)ccc3C2=O)C(=O)N1 (centres unmarked) [Compound 179, 3-(1-oxo-5-(2-oxo-3-(2,2,2-trifluoro-1-phenylethyl)imidazolidin-1-yl)isoindolin-2-yl)piperidine-2,6-dione]",0.1 to 1 µM,> 1 µM
"O=C1CCC(N2Cc3cc(N4CCN(C5CN(c6ccccn6)C5)C4=O)ccc3C2=O)C(=O)N1 (centres unmarked) [Compound 184, 3-(1-oxo-5-(2-oxo-3-(1-(pyridin-2-yl)azetidin-3-yl)imidazolidin-1-yl)isoindolin-2-yl)piperidine-2,6-dione]",0.1 to 1 µM,> 1 µM
"Cc1cccc(N2CCN(c3ccc4c(c3)CN(C3CCC(=O)NC3=O)C4=O)C2=O)c1 (centres unmarked) [Compound 110, 3-(1-oxo-5-(2-oxo-3-(m-tolyl)imidazolidin-1-yl)isoindolin-2-yl)piperidine-2,6-dione]",0.1 to 1 µM,≤ 0.1 µM
"O=C1CCC(N2Cc3cc(N4CCN(C5CC6(CCC6)C5)C4=O)ccc3C2=O)C(=O)N1 (centres unmarked) [Compound 153, 3-(1-oxo-5-(2-oxo-3-(spiro[3.3]heptan-2-yl)imidazolidin-1-yl)isoindolin-2-yl)piperidine-2,6-dione]",0.1 to 1 µM,0.1 to 1 µM
"CC1C(C)N(c2ccc3c(c2)CN(C2CCC(=O)NC2=O)C3=O)C(=O)N1c1ccccc1 (centres unmarked) [Compound 113, 3-(5-(4,5-dimethyl-2-oxo-3-phenylimidazolidin-1-yl)-1-oxoisoindolin-2-yl)piperidine-2,6-dione]",0.1 to 1 µM,> 1 µM
"CC(C)c1ccc(N2CCN(c3ccc4c(c3)CN(C3CCC(=O)NC3=O)C4=O)C2=O)cc1 (centres unmarked) [Compound 120, 3-(5-(3-(4-isopropylphenyl)-2-oxoimidazolidin-1-yl)-1-oxoisoindolin-2-yl)piperidine-2,6-dione]",0.1 to 1 µM,≤ 0.1 µM
"CN1CCN(c2cccc(N3CCN(c4ccc5c(c4)CN(C4CCC(=O)NC4=O)C5=O)C3=O)c2)CC1 (centres unmarked) [Compound 165, 3-(5-(3-(3-(4-methylpiperazin-1-yl)phenyl)-2-oxoimidazolidin-1-yl)-1-oxoisoindolin-2-yl)piperidine-2,6-dione]",0.1 to 1 µM,0.1 to 1 µM
"COC[C@H]1CN(c2ccc3c(c2)CN(C2CCC(=O)NC2=O)C3=O)C(=O)N1c1ccc(C)cc1 (stereo partly drawn) [Compound 157, 3-(5-((R)-4-(methoxymethyl)-2-oxo-3-(p-tolyl)imidazolidin-1-yl)-1-oxoisoindolin-2-yl)piperidine-2,6-dione]",0.1 to 1 µM,0.1 to 1 µM
"CN1CCCC1c1ccc(N2CCN(c3ccc4c(c3)CN(C3CCC(=O)NC3=O)C4=O)C2=O)cc1 (centres unmarked) [Compound 177, 3-(5-(3-(4-(1-methylpyrrolidin-2-yl)phenyl)-2-oxoimidazolidin-1-yl)-1-oxoisoindolin-2-yl)piperidine-2,6-dione]",0.1 to 1 µM,> 1 µM
"O=C1CCC(N2Cc3cc(N4CCN(c5cccc(C(F)(F)F)c5)C4=O)ccc3C2=O)C(=O)N1 (centres unmarked) [Compound 116, 3-(1-oxo-5-(2-oxo-3-(3-(trifluoromethyl)phenyl)imidazolidin-1-yl)isoindolin-2-yl)piperidine-2,6-dione]",0.1 to 1 µM,≤ 0.1 µM
"O=C1CCC(N2Cc3cc(N4CCN(C5CN(c6ccccc6)C5)C4=O)ccc3C2=O)C(=O)N1 (centres unmarked) [Compound 174, 3-(1-oxo-5-(2-oxo-3-(1-phenylazetidin-3-yl)imidazolidin-1-yl)isoindolin-2-yl)piperidine-2,6-dione]",0.1 to 1 µM,> 1 µM
"Cc1ccc(N2C(=O)N(c3ccc4c(c3)CN(C3CCC(=O)NC3=O)C4=O)CC2C)cn1 (centres unmarked) [Compound 122, 3-(5-(4-methyl-3-(6-methylpyridin-3-yl)-2-oxoimidazolidin-1-yl)-1-oxoisoindolin-2-yl)piperidine-2,6-dione]",> 1 µM,0.1 to 1 µM
"O=C1CCC(N2Cc3cc(N4CCN(C5CCOC5)C4=O)ccc3C2=O)C(=O)N1 (centres unmarked) [Compound 162, 3-(1-oxo-5-(2-oxo-3-(tetrahydrofuran-3-yl)imidazolidin-1-yl)isoindolin-2-yl)piperidine-2,6-dione]",0.1 to 1 µM,0.1 to 1 µM
"COc1ccc(-n2ccn(-c3ccc4c(c3)CN(C3CCC(=O)NC3=O)C4=O)c2=O)cc1 (centres unmarked) [Compound 102, 3-(5-(3-(4-methoxyphenyl)-2-oxo-2,3-dihydro-1H-imidazol-1-yl)-1-oxoisoindolin-2-yl) piperidine-2,6-dione]",0.1 to 1 µM,> 1 µM
"CC(C)c1cccc(N2CCN(c3ccc4c(c3)CN(C3CCC(=O)NC3=O)C4=O)C2=O)c1 (centres unmarked) [Compound 119, 3-(5-(3-(3-isopropylphenyl)-2-oxoimidazolidin-1-yl)-1-oxoisoindolin-2-yl)piperidine-2,6-dione]",0.1 to 1 µM,≤ 0.1 µM
